Reference: US20170056345A1 (priority 2014, published 2017)

Assays:
M. tuberculosis = experiment: time-kill curve method, bactericidal activity (CFU) on solid media at pH6; format: cell-based; conditions: FIG. 2
Experimental: The synergistic effect of AHA in overcoming urea protection of M. tuberculosis and in enhancing the efficacy of PZA is illustrated.
We employed a time-kill curve method to determine the bactericidal activity of PZA and a combination of PZA and acetohydroxamic acid (AHA) against M. tuberculosis. We cultured M. tuberculosis on solid media at pH6. CFU values were determined for samples treated with pyrazinamide (PZA), urea at a typical body fluid concentration and acetohydroxamic acid. […] Consequently, our results provide that AHA acts not only as a PZA booster, but also as an anti-mycobacterial agent, in some instances, in a synergistic manner with the traditional anti-mycobacterial agent used.

mycobacterial urease = mycobacterial urease (Mycobacterium bovis, UniProt A1KJR2); experiment: cell-based; parameters: species or system M. bovis BCG
Sequence of mycobacterial urease (A1KJR2 whole entry, looked up): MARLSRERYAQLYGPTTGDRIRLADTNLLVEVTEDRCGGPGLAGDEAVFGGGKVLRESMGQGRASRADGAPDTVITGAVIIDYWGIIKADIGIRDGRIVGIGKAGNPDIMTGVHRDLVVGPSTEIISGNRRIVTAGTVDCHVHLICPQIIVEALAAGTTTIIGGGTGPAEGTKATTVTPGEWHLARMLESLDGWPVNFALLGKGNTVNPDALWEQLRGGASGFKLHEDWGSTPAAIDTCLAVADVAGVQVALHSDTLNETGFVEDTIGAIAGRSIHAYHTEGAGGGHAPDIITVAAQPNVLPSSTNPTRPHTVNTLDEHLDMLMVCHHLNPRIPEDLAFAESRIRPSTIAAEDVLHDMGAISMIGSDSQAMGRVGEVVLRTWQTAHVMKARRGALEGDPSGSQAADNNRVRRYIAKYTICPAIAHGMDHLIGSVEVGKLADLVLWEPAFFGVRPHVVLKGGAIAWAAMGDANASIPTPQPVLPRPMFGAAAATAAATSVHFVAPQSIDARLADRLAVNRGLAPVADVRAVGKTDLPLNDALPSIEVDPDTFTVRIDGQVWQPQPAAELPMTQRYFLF

SMILES: NC(=O)c1cnccn1 [PZA, pyrazinamide]
- kill (bactericidal activity, CFU) (M. tuberculosis; PZA alone, M. tuberculosis on solid media at pH6): modest

SMILES: CC(=O)NO [acetohydroxamic acid]
- IC50 (mycobacterial urease): 100 to 200 µM
- effect on kill rate (M. tuberculosis; AHA combined with PZA (urea present), solid media pH6): substantially increased the kill rate
- effect on urea protection against the PZA kill (M. tuberculosis; AHA with PZA and urea at a typical body fluid concentration, solid media pH6): prevented urea protection
